# Laboratory results as given in PMC5471252, “Anti-leukemia activity of a Hsp70 inhibitor and its hybrid molecules” (Scientific Reports, 2017).
# Legend:
# [1] = test system: THP-1 cells; test: MTT assay, cell viability of THP-1 cells; type: cell-based; conditions: Homo sapiens, 48 h, mean ± s.d., n = 3, read-out: IC50 values of compounds for leukemia cells
# [2] = test system: human leukemia cells (HL-60, KG-1, THP-1, U937, Jurkat and K562 cells); test: MTT assay, all tested leukemia cells (summary statements); conditions: Homo sapiens, 48 h, read-out: IC50 values, cytotoxic activities toward all the tested leukemia
# Description: To assess anti-leukemia activity of Az, several human leukemia cells (HL-60 cells, acute myeloid leukemia; Jurkat cells, acute T-lymphocytic leukemia; KG-1 cells, acute myeloid leukemia; U937 cells, acute myeloid leukemia; THP-1 cells, acute monocytic leukemia; K562 cells, chronic myeloid leukemia) were incubated with Az for 48 h. […] An MTT assay was then performed to measure cell viabilities.
# Cells were exposed to each compound (a HCl salt form) at various concentrations for indicated time periods (24 or 48 h) in culture media. MTT assays were conducted according to known procedures. The absorbance at 570 nm was determined by employing a microplate reader (TECAN, Infinite® 200 PRO).
# [3] = test system: HL-60 and K562 cells; test: Flow cytometry, JC-1 mitochondrial membrane potential; type: cell-based, human; conditions: 24 h; 10 µM Az or 4 µM Az-O3-GD
# Description: To determine whether Az promotes leukemia cell death via apoptosis, acute leukemia HL-60 and chronic leukemia K562 cells were independently incubated with Az. The treated cells were then exposed to a mixed solution of fluorescein-annexin V and propidium iodide (PI) and flow cytometry analysis was conducted. […] The size of the treated cells was also assessed by using flow cytometry. […] We also investigated if the mitochondrial membrane potential in cells treated with Az is disrupted. To test this possibility, HL-60 and K562 cells were exposed to Az and subsequently stained with a membrane potential sensitive JC-1 probe. […] This serves as another evidence for apoptosis induced by Az.
# JC-1 staining: HL-60 and K562 cells were treated with each compound and then with 2.5 μg/mL JC-1 (Anaspec) in PBS for 15 min. Flow cytometry was conducted with a BD FACSVerse™ instrument (the red fluorescence signal: λex = 550 nm, λem = 600 nm; the green fluorescence signal: λex = 485 nm, λem = 535 nm) and the data were analyzed using a FlowJo™ software.
# [4] = test system: caspase activity of HL-60 and K562 cells; test: Caspase activity assay with Ac-DEVD-pNA in cell lysates; type: cell-based, human; conditions: lysates of cells treated 24 h
# Description: Because Az inhibits the association of Hsp70 with Apaf-1, caspase associated proteolytic activities should increase in cells treated with Az. To determine whether this event occurs, caspase activities of HL-60 and K562 cells treated with Az were measured by using the colorimetric substrate, Ac-DEVD-pNA (pNA, p-nitroaniline). […] We also examined whether leukemia cells are protected from the effect of Az by ZVAD-FMK (benzyloxycarbonyl-Val-Ala-Asp(OMe) fluoromethyl ketone, a cell-permeable inhibitor of pan-caspases). HL-60 and K562 cells were pre-incubated with ZVAD-FMK for 3 h and subsequently exposed to Az.
# HL-60 and K562 cells treated with each compound for 24 h were lysed in a buffer containing 50 mM HEPES (pH 7.4), 5 mM CHAPS and 5 mM DTT. Assay buffer containing 20 mM HEPES (pH 7.4), 0.01% CHAPS, 5 mM DTT and 2 mM EDTA was added to cell lysates. Caspase activity was measured in the absence or presence of acetyl-DEVD-pNA (200 μM) (Sigma-Aldrich) by using a microplate reader (monitored at 405 nm).
# [5] = molecular target: T1, interaction of Hsp70 with Apaf-1 in HL-60 and K562 cells (Homo sapiens, UniProt P0DMV8); test: Immunoprecipitation of Hsp70/Apaf-1 complex with Hsp70 antibody; type: cell-based; conditions: cells treated 24 h, co-immunoprecipitation
# T1 construct: endogenous in cells; host or cells: HL-60 and K562 cells
# T1 sequence (P0DMV8 whole entry): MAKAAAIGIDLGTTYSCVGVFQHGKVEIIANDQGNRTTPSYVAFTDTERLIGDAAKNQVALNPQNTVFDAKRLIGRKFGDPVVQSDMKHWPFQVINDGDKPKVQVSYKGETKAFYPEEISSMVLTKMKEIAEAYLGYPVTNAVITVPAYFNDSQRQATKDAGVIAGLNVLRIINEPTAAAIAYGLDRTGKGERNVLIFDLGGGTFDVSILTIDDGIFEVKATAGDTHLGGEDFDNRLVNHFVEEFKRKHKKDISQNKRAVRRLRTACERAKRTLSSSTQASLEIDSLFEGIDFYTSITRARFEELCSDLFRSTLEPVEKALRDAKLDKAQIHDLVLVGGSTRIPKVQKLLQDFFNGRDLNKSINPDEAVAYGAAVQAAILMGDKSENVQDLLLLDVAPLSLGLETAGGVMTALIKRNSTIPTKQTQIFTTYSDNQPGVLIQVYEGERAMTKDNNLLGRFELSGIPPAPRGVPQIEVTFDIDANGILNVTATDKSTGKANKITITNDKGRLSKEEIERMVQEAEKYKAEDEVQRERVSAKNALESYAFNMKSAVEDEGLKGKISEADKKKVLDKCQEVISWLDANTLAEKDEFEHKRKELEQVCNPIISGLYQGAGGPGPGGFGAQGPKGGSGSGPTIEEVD
# Description: With this information in mind, we tested if Az enhances the cytochrome c release from mitochondria into the cytosol in leukemia cells. The levels of cytochrome c in cytosolic and mitochondrial fractions of HL-60 and K562 cells after treatment with Az were determined by using western blot analysis. […] We next determined if the binding of Hsp70 to Apaf-1 is suppressed by Az during apoptosis. For this purpose, HL-60 and K562 cells were exposed to Az, and a complex of Hsp70 and Apaf-1 was then immunoprecipitated with Hsp70 antibody.
# Supplementary Figure S9. Az blocks association of Hsp70 with Apaf-1. (a) HL-60 and K562 cells were treated with Az for 24 h, and the amount of Hsp70, Hsc70 and Apaf-1 was measured by western blot. […] (b) HL-60 and K562 cells were treated with Az for 24 h. Immunoprecipitation was performed with a Hsp70 antibody, and the amount of co-precipitated Apaf-1 was determined by western blot.
smiles,measurement,setting,value
"COc1ccc(-c2nc(-c3cc(C(F)(F)F)cc(C(F)(F)F)c3)n(Cc3ccc(C(=O)NCCOCCOCCN)cc3)c2-c2ccc(OC)cc2)cc1 [Az, apoptozole]",IC50,[1],3.7 ± 0.73 µM
same,IC50,[2],2 to 5 µM
same,"mitochondrial membrane potential, JC-1 red fluorescence",[3],reduction of the mitochondrial membrane potential
same,caspase activity of treated cells,[4],increase
same,interaction of Hsp70 with Apaf-1,[5],inhibits the interaction of Hsp70 with Apaf-1
